From patent publication US20240246954A1, “COMPOSITIONS AND METHODS FOR INHIBITING KRAS” (TheRas, Inc., priority 2021, published 2024)

How the values were obtained:
[1] = target: T1, Avi-KRAS G12D/Q25A (1-169) GppNHp/3×FLAG-PI3KCA (157-299) (Homo sapiens, UniProt P01116, G12D/Q25A); assay: HTRF PI3KCA-KRAS G12D/Q25A-GppNHp disruption assay; format: biochemical; conditions: 1 h incubation
T1 construct: Avi-KRAS G12D/Q25A (1-169) GppNHp
Description: (§1) The HTRF assay employed the following protocol:
(§2) Compounds were dispensed in assay plate (384-well, Grenier Bione #784075) using Echo (model 555) with dose response settings: 200 nL final volume, titration from 100 μM as a 10-point dilution series. Protein mix was prepared in assay buffer, and dispensed on plates, 10 μL per well, then incubated for 1 h at room temperature, with 700 rpm shaking. Reagents mix was prepared and dispensed on plates, 10 μL per well, then incubated for 1 h at room temperature, with 700 rpm shaking.
(§3) Plates were analyzed on an Envision plate reader using the following setting: Excitation 320 nm, Bandwidth […]; Emission 615 nm, Bandwidth […], Gain 100%, Flashes 100, Lag 60 μs. Data was reported as percentage of activity, with DMSO as 100%. Data was plotted and analyzed using Prism 8.

[2] = target: T2, Avi-KRAS G12D (1-169) GppNHp/RAF1 RBD-3×FLAG (52-151) (Homo sapiens, UniProt P01116, G12D); assay: HTRF Raf1-KRAS G12D-GppNHp disruption assay; format: biochemical; conditions: 1 h incubation
T2 construct: Avi-KRAS G12D (1-169) GppNHp
Description: as §1, §2, §3

T2 sequence (P01116 1-169 isoform P01116-2 G12D limits assumed): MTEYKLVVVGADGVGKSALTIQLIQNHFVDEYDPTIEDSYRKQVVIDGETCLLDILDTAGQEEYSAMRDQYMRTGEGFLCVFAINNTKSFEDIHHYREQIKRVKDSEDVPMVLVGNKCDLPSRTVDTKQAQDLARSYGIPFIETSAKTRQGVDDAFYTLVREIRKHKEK
T1 sequence (P01116 1-169 isoform P01116-2 G12D/Q25A limits assumed): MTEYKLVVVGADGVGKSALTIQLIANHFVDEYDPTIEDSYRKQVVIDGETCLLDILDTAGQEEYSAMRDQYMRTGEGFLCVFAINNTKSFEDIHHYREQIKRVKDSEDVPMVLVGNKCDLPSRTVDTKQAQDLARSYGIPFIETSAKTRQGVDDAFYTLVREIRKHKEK

IC50 [1] | IC50 [2] | Structure (SMILES)
10 to 30 µM | 10 to 30 µM | CN1CCC[C@H]1COc1nc(NCCN)c2cc(Cl)c(-c3cccc4nc(N)sc34)c(F)c2n1 [Compound 100]
10 to 30 µM | 10 to 30 µM | CN1CCC(c2nc(N3CCNCC3)c3cc(Cl)c(-c4ccc(F)c5sc(N)nc45)c(F)c3n2)CC1 [Compound 101]
10 to 30 µM | 10 to 30 µM | CN1CCC(c2nc(NC3CNC3)c3cc(Cl)c(-c4ccc(F)c5sc(N)nc45)c(F)c3n2)CC1 [Compound 102]
10 to 30 µM | 10 to 30 µM | CN1CCC(c2nc(NCCN)c3cc(Cl)c(-c4ccc(F)c5sc(N)nc45)c(F)c3n2)CC1 [Compound 103]
10 to 30 µM | 10 to 30 µM | CN1CCC[C@H]1COc1nc(N2C[C@@H]3[C@H]2CCN3C(=O)CN)c2cc(Cl)c(-c3cccc4nc(N)sc34)c(F)c2n1 [Compound 104]
10 to 30 µM | 10 to 30 µM | CN1CCC1COc1nc(NC2CNC2)c2cc(Cl)c(-c3ccc(F)c4sc(N)nc34)c(F)c2n1 (centres unmarked) [Compound 105]
1 to 10 µM | 1 to 10 µM | CN1C[C@H](F)C[C@H]1COc1nc(NC2CNC2)c2cc(Cl)c(-c3ccc(F)c4sc(N)nc34)c(F)c2n1 [Compound 106]
10 to 30 µM | 10 to 30 µM | CN1CCC[C@H]1COc1nc(NCCN)c2cc(Cl)c(-c3ccc(F)c4nc(N)sc34)c(F)c2n1 [Compound 107]
10 to 30 µM | 10 to 30 µM | CN1CCC[C@H]1COc1nc(N2CCN(C(=O)CN)CC2)c2cc(Cl)c(-c3ccc(F)c4sc(N)nc34)c(F)c2n1 [Compound 108]
10 to 30 µM | 10 to 30 µM | CN1CCC[C@H]1COc1nc(NCCN)c2cc(Cl)c(-c3ccc4nc(N)sc4c3)c(F)c2n1 [Compound 109]
1 to 10 µM | 1 to 10 µM | CN1CCC[C@H]1COc1nc(N2CC(N)C2)c2cc(Cl)c(-c3ccc(F)c4sc(N)nc34)c(F)c2n1 [Compound 112]
1 to 10 µM | 0.1 to 1 µM | Nc1nc2c(F)ccc(-c3c(-c4ccoc4)cc4c(NC5CNC5)nc(OCC56CCCN5CCC6)nc4c3F)c2s1 [Compound 113]
1 to 10 µM | 1 to 10 µM | CN1CCC[C@H]1COc1nc(NC2CN(C(=O)CN)C2)c2cc(C(F)(F)F)c(-c3ccc(F)c4sc(N)nc34)c(F)c2n1 [Compound 114]
1 to 10 µM | 1 to 10 µM | CN1CCC[C@H]1COc1nc(N2CCNCC2)c2cc(C(F)(F)F)c(-c3ccc(F)c4sc(N)nc34)c(F)c2n1 [Compound 115]
1 to 10 µM | 1 to 10 µM | CN1CCC[C@H]1COc1nc(N2CCN(C(=O)CN)CC2)c2cc(C(F)(F)F)c(-c3ccc(F)c4sc(N)nc34)c(F)c2n1 [Compound 116]
1 to 10 µM | 1 to 10 µM | CN1C[C@H](F)C[C@H]1COc1nc(NC2CNC2)c2cc(C(F)(F)F)c(-c3ccc(F)c4sc(N)nc34)c(F)c2n1 [Compound 119]
1 to 10 µM | 1 to 10 µM | CO[C@@H]1C[C@@H](COc2nc(NC3CNC3)c3cc(C(F)(F)F)c(-c4ccc(F)c5sc(N)nc45)c(F)c3n2)N(C)C1 [Compound 122]
1 to 10 µM | 1 to 10 µM | Nc1nc2c(-c3c(C(F)(F)F)cc4c(N5CCNCC5)nc(OCC56CCCN5CCC6)nc4c3F)ccc(F)c2s1 [Compound 123]
10 to 30 µM | 10 to 30 µM | COc1c(Cl)c(-c2ccc(F)c3sc(N)nc23)c(F)c2ncnc(N3CCNCC3)c12 [Compound 125, 4-(6-chloro-8-fluoro-5-methoxy-4-(piperazin-1-yl)quinazolin-7-yl)-7-fluorobenzo[d]thiazol-2-amine]

IC50 [1] | IC50 [2] | Structure (SMILES)
10 to 30 µM | 10 to 30 µM | CN1C[C@H](F)C[C@H]1COc1nc(N2CCNCC2)c2cc(Cl)c(-c3ccc(F)c4sc(N)nc34)c(F)c2n1 [Compound 128]
10 to 30 µM | 10 to 30 µM | N#CCc1cc2c(N3CCN(C(=O)CN)CC3)ncnc2c(F)c1-c1ccc(F)c2sc(N)nc12 [Compound 131]
1 to 10 µM | 1 to 10 µM | CN1C[C@H](OC(F)F)C[C@H]1COc1nc(NC2CNC2)c2cc(Cl)c(-c3ccc(F)c4sc(N)nc34)c(F)c2n1 [Compound 132]
1 to 10 µM | 1 to 10 µM | CN1C[C@H](F)C[C@H]1COc1nc(NC2CNC2)c2cc(-c3ccoc3)c(-c3ccc(F)c4sc(N)nc34)c(F)c2n1 [Compound 135]
10 to 30 µM | 10 to 30 µM | CN1CC(F)(F)C[C@H]1COc1nc(NCCN)c2cc(Cl)c(-c3ccc(F)c4sc(N)nc34)c(F)c2n1 [Compound 136]
10 to 30 µM | 1 to 10 µM | CN1C[C@H](F)C[C@H]1COc1nc(NC2CN(C(=O)CN)C2)c2cc(-c3ccoc3)c(-c3ccc(F)c4sc(N)nc34)c(F)c2n1 [Compound 137]
10 to 30 µM | 1 to 10 µM | CN1C[C@H](F)C[C@H]1COc1nc(N2CCNCC2)c2cc(C(F)(F)F)c(-c3ccc(F)c4sc(N)nc34)c(F)c2n1 [Compound 140]
10 to 30 µM | 10 to 30 µM | CN1C[C@H](F)C[C@H]1COc1nc(N2CCNCC2)c2cc(-c3ccoc3)c(-c3ccc(F)c4sc(N)nc34)c(F)c2n1 [Compound 141]
10 to 30 µM | 10 to 30 µM | CN1CCC[C@H]1COc1nc(N2CCNCC2)c2cc(-c3ccoc3)c(-c3ccc(F)c4sc(N)nc34)c(F)c2n1 [Compound 143, 7-fluoro-4-(8-fluoro-6-(furan-3-yl)-2-(((S)-1-methylpyrrolidin-2-yl)methoxy)-4-(piperazin-1-yl)quinazolin-7-yl)benzo[d]thiazol-2-amine]
10 to 30 µM | 10 to 30 µM | CN1CCC[C@H]1COc1nc(N2CCN(C(=O)CN)CC2)c2cc(-c3ccoc3)c(-c3ccc(F)c4sc(N)nc34)c(F)c2n1 [Compound 144, 2-amino-1-(4-(7-(2-amino-7-fluorobenzo[d]thiazol-4-yl)-8-fluoro-6-(furan-3-yl)-2-(((S)-1-methylpyrrolidin-2-yl)methoxy)quinazolin-4-yl)piperazin-1-yl)ethan-1-one]
10 to 30 µM | 10 to 30 µM | CN1CCC[C@H]1COc1nc(N2CCNCC2)c2cc(-c3ccccc3)c(-c3ccc(F)c4sc(N)nc34)c(F)c2n1 [Compound 145]
10 to 30 µM | 1 to 10 µM | CN1CCC[C@H]1COc1nc(NC2CN(C(=O)CN)C2)c2cc(-c3ccoc3)c(-c3ccc(F)c4sc(N)nc34)c(F)c2n1 [Compound 146]
10 to 30 µM | 10 to 30 µM | CN(c1nc(OC[C@@H]2CCCN2C)nc2c(F)c(-c3ccc(F)c4sc(N)nc34)c(Cl)cc12)C1CN(C(=O)CN)C1 [Compound 147]
1 to 10 µM | 1 to 10 µM | CN1CCC[C@H]1COc1nc(NCCN)c2cc(C(F)(F)F)c(-c3ccc(F)c4sc(N)nc34)c(F)c2n1 [Compound 149]
10 to 30 µM | 10 to 30 µM | CN(c1nc(OC[C@@H]2C[C@@H](F)CN2C)nc2c(F)c(-c3ccc(F)c4sc(N)nc34)c(-c3ccoc3)cc12)C1CN(C(=O)CN)C1 [Compound 150]
10 to 30 µM | 1 to 10 µM | CN(c1nc(OCC23CCCN2CCC3)nc2c(F)c(-c3ccc(F)c4sc(N)nc34)c(-c3ccoc3)cc12)C1CN(C(N)=O)C1 [Compound 151]
10 to 30 µM | 10 to 30 µM | CN1CCC[C@H]1COc1nc(N(C2CC2)C2CNC2)c2cc(Cl)c(-c3ccc(F)c4sc(N)nc34)c(F)c2n1 [Compound 152]
10 to 30 µM | 1 to 10 µM | NCC(=O)N1CC[C@@H]2[C@H]1CN2c1nc(OCC23CCCN2CCC3)nc2c(F)c(-c3ccc(F)c4sc(N)nc34)c(-c3ccoc3)cc12 [Compound 153]
